From ChEMBL document CHEMBL1159162, “Conformationally constrained analogues of diacylglycerol (DAG). 3. Interaction of -alkyl--lactones with protein kinase C (PK-C)” (Bioorg Med Chem Lett, 1993)

Molecular target: not listed separately
Test: (§1) Inhibition of [20-3H]phorbol-12,13-dibutyrate (PDBU) binding to protein kinase-C (PKC alpha, beta and gamma) from mouse brain

Ki [nM]	Structure (SMILES)
2900	CCCCCCCCCCCCCC(=O)O[C@H]1[C@H](CO)OC(=O)[C@@H]1CCCCCCCCCCCC
2500	CCCCCCCCCCCCCC(=O)O[C@@H]1CC(=O)O[C@H]1CO
1100	CCCCCCCCCCCC[C@H]1C(=O)O[C@@H](CO)[C@@H]1OC(C)=O
5300	CCCCCCCCCCCCCC(=O)O[C@H]1CC(=O)O[C@@H]1CO
500	CCCCCCCCCCCCCC(=O)OC[C@H](CO)OC(C)=O
600	CCCCCCCCCCCCCC[C@H]1C(=O)O[C@@H](CO)[C@@H]1OC(C)=O

Organism: Mus musculus
Test: as §1

ED50 [nM]	Structure (SMILES)
> 200000	CCCCCCCCCCCCCC(=O)O[C@H]1C(CCCCCCCCCCCC)C(=O)O[C@@H]1CO (stereo partly drawn)
> 100000	CCCCCCCCCCCCC1C(=O)O[C@H](CO)[C@H]1OC(C)=O (stereo partly drawn)
